{
  "source": "patent US9492454B2",
  "about": "“Use of pemirolast in the treatment of acute asthma” (RSPR PHARMA AB, priority 2014, dated 2016)",
  "key": {"[1]": {"set-up": "species or system Beagles (dog)", "settings": "dog, in vivo", "from_the_text": "There were no major differences in kinetics between males and females."}, "hERG potassium channel": {"target": "hERG potassium channel (Homo sapiens, UniProt Q12809)", "sequence (Q12809 whole entry)": "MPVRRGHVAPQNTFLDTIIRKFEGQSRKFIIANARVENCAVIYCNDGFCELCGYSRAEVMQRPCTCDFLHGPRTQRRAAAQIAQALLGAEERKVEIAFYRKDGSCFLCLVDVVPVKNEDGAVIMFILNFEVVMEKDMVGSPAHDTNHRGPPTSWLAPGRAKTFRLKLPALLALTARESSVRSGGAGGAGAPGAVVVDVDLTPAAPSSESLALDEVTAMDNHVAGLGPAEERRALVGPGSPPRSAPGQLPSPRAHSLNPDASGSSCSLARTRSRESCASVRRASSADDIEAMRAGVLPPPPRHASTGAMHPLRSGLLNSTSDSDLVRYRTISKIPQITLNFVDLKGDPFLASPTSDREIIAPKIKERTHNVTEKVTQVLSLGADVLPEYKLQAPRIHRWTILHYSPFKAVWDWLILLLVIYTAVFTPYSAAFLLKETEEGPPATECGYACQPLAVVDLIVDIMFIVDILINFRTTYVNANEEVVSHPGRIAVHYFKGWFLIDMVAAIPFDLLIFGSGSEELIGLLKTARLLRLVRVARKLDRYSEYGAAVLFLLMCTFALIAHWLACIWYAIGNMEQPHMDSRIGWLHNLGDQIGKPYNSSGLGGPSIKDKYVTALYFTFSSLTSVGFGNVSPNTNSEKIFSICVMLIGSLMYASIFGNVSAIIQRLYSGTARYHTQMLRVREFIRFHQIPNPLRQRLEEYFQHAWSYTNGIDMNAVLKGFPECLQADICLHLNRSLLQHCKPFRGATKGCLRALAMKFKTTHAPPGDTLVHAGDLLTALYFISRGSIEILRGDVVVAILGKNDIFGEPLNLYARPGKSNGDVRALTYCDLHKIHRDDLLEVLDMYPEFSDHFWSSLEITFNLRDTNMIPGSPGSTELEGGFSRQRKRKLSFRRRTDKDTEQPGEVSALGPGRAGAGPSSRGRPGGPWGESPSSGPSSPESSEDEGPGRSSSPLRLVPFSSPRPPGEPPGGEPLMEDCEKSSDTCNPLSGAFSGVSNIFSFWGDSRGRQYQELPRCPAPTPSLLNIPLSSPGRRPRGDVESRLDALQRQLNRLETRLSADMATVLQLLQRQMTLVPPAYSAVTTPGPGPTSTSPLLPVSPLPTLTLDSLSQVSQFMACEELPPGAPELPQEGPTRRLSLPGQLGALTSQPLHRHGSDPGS", "protocol": "This study was performed by PhysioStim, France, a GLP compliant facility.\nThe effects of pemirolast on hERG currents in HEK-293 cells stably expressing the hERG potassium channel were studied using patch-clamp technique."}, "[2]": {"test": "Single and multiple-dose open safety, tolerability and pharmacokinetic study of pemirolast potassium tablets, with linear Cmax extrapolation", "type": "in vivo, human", "settings": "linear extrapolation from 42.5 mg multiple dose", "protocol": "This study comprised 18 healthy male subjects, 18-45 years of age, and was a single and multiple-dose, open study assessing the safety and tolerability of pemirolast potassium tablets (10 mg, Ulgixal™ tablets) with the doses 10, 30 and 50 mg (containing 8.5, 25.5 and 42.5 mg pemirolast free acid, respectively) b.i.d. (6 subjects in each dose group). The subjects received a single dose on the first day, then b.i.d. for three days and a single dose on the fifth day. The study was performed at the Berzelius Clinical Research Center AB in Linköping, Sweden. All laboratory pharmacokinetic analyses were performed by Quintiles AB, Uppsala, Sweden. Pharmacokinetic calculations were performed by Pharm Assist Sweden AB, Uppsala, Sweden. Mean Cmax data after multiple dosing are shown in and Table 1, and mean plasma concentrations over time on Day 5 are shown in FIG. 1. Based on these clinical data, Cmax predictions were made (assumption: Linear pharmacokinetics when extrapolating to higher dose levels) and are presented in Table 2."}, "[3]": {"test": "Later pharmacokinetic studies in healthy volunteers (multiple doses)", "type": "in vivo, human", "settings": "80, 200 and 320 mg b.i.d. for three and a half days"}, "human bronchial tissue": {"test_system": "human bronchial tissue", "test": "Bronchodilatory effect on pre-contracted isolated human bronchi (myograph, isometric tension)", "type": "cell-based", "settings": "for effect on bronchoconstriction induced by carbachol: carbachol 3 μM; for effect on bronchoconstriction induced by histamine: histamine 1 μM"}, "[4]": {"test_system": "asthma patients challenged with mannitol inhalation", "test": "Clinical trial: mannitol challenge test in asthma patients (PD15, FEV1, safety)", "type": "in vivo, human", "settings": "for long-term prophylactic effect on mannitol-induced asthma (mannitol PD15 at placebo visit): n=4", "protocol": "This study comprised male and female asthma patients (18 to 46 years of age) with a positive asthma test (as determined by a mannitol challenge test (vide infra) performed within 15 days prior to enrolment at the first screening visit, Visit 1).\nIt was a double-blind, randomized, placebo-controlled, cross-over trial assessing the efficacy of orally administered single doses of placebo and 40 mg and 400 mg of pemirolast (immediate release tablets containing pemirolast sodium hemihydrate, as well as microcrystalline cellulose, mannitol, copovidone fine, croscarmellose sodium, anhydrous colloidal silica and magnesium stearate) in patients challenged with mannitol inhalation as described below.\nThe patients were exposed to the different treatments at three separate hospital visits at least 2 (mean 6.8, median 6) days apart. The data reported in FIGS. 5 and 6 below represent the patients that received placebo treatment at the first visit (n=8) or placebo at the second visit (after 40 mg at the first visit (n=4) or after 400 mg at the first visit (n=4)).\nAll doses were administered 3 hours before initiation of the mannitol challenge test to ensure peak plasma concentrations of pemirolast when the mannitol challenge was performed (blood samples for analysing plasma concentrations of pemirolast were collected 3 hours after drug administration).\nThere were 5 visits during the trial: A screening visit (Visit 1, within 15 days before Visit 2), three visits for treatment with Investigational Medicinal Products (IMP; pemirolast 40 or 400 mg, or placebo) (Visit 2-4, spaced at least 2 days apart), and a final follow-up visit by telephone (Visit 5, at least 2, but less than 4 days after Visit 4 and within 30 days of Visit 2).\nThe primary endpoint in the study was the Provocation Dose (PD) of mannitol resulting in a 15% fall in Forced Expiratory Volume during 1 second (FEV1; values given in Litres (L)) (PD15 for mannitol), which is recognised by regulatory authorities as an acceptable method to evaluate potential efficacy of asthma drugs (European Medicines Agency. Note for Guidance on Clinical Investigation of Medicinal Products for Treatment of Asthma, 2013).\nThe mannitol challenge test (Aridol®, Pharmaxis Ltd, Frenchs Forest, Sydney Australia) was performed as follows: application of nose clip and challenge with 0 (empty capsule acting as placebo), 5, 10, 20, 40, 80, 160, 160, 160 and 160 mg of mannitol via the Halermatic (the 80 and 160 mg doses were given as multiple doses of 40 mg capsules). After inhalation, subjects were instructed to hold their breath for 5 seconds.\nAt least 2 repeatable FEV1 manoeuvres were performed 60 seconds after each dose and the highest FEV1 was used in the calculation. […]"}, "prostaglandin D2": {"test_system": "prostaglandin D2", "test": "Urinary excretion of 11β-PGF2α (PGD2 metabolite, mast cell biomarker), EIA", "type": "in vivo, human", "settings": "for baseline production of PGD2 in asthmatics without ongoing attacks: n=22-24", "protocol": "A secondary endpoint in the study was to analyse changes in urinary excretion of a metabolite (11β-prostaglandin (PG) F2α) of the lung mast cell mediator/biomarker prostaglandin D2. 11β-PGF2α analysis was performed in unextracted urine samples using a validated enzyme immunoassays (EIA) kit from Cayman Chemical, Ann Arbor, Mich., USA (Item no 516521). Absolute values of the mediators were expressed as nanograms 11β-PGF2α per millimole creatinine.\n• a) Withdrawal from trial visit criteria to be checked • b) Urine sampling for 11β-PGF2α analysis • c) Blood sampling for haematology and blood biochemistry • d) Vital signs, physical examination, adverse events and concomitant medication 2) Administration of IMP 3 hours (+/−10 min) before the mannitol challenge 3) Before mannitol challenge: • a) <10 min before: Urine sampling for 11β-PGF2α analysis • b) <10 min before: Blood sampling for analysis of plasma pemirolast concentration 4) Mannitol test 3 hours (+/−10 min) after IMP administration 5) After mannitol challenge: • a) Urine sampling for 11β-PGF2α, 30 minutes after mannitol challenge • b) Pregnancy test (Visit 4 only, in addition to prior to enrolment) • e) Recording of concomitant medication just before sending the patient home • f) Reporting of AEs just before sending the subject home\nProstaglandin D2 (PGD2) is released from mast cells (e.g. in the lung) and is known as a mediator of asthmatic bronchoconstriction (Hardy et al, N. Engl. J. Med., 311, 209 (1984)). Urinary levels of the PGD2 metabolite 11β-PGF2α increase acutely during asthmatic attacks, including those induced by mannitol inhalation (Brannan et al, Eur. Respir. J., 22, 491 (2003)). This PGD2 metabolite is therefore used as a biomarker for mast cell activation in asthmatics."}, "[5]": {"test_system": "antigen- and PAF-induced bronchoconstriction", "settings": "pre-administration, guinea pigs in vivo; cited from earlier work"}, "isolated tracheal muscle": {"test_system": "isolated tracheal muscle", "settings": "isolated guinea pig tracheal muscle, cited from earlier work"}, "[6]": {"test_system": "isolated guinea pig trachea", "settings": "trachea pre-constricted with acetylcholine, histamine, serotonin and barium chloride; cited from earlier work"}, "[7]": {"settings": "twice daily 50 mg doses in humans; cited from earlier work"}},
  "note": "Entries after “also recorded” stand apart in the source; their conditions may differ. Like-named read-outs stand apart in the source and are kept apart here.",
  "data": [
    {"smiles": "Cc1cccn2c(=O)c(-c3nnn[nH]3)cnc12", "note": "[pemirolast potassium]", "values": [
      {"measurement": "safe chronic dose in dogs", "setting": "[1]", "value": 75, "unit": "mg/kg daily"},
      {"measurement": "decrease of hERG tail current amplitude", "setting": "hERG potassium channel; 2.7 μg/mL", "value": 5.4, "unit": "%"},
      {"measurement": "decrease of hERG tail current amplitude", "setting": "hERG potassium channel; 8 μg/mL", "value": 10.2, "unit": "%"},
      {"measurement": "decrease of hERG tail current amplitude", "setting": "hERG potassium channel; 26.6 μg/mL", "value": 14.1, "unit": "%"},
      {"measurement": "decrease of hERG tail current amplitude", "setting": "hERG potassium channel; 79.9 μg/mL", "value": 19.0, "unit": "%"}
    ]},
    {"smiles": "Cc1cccn2c(=O)c(-c3nnn[nH]3)cnc12", "note": "[pemirolast]", "values": [
      {"measurement": "Predicted Cmax", "setting": "[2]; predicted for 125 mg", "value": 10070, "unit": "ng/mL"},
      {"measurement": "Predicted Cmax", "setting": "[2]; predicted for 200 mg", "value": 16120, "unit": "ng/mL"},
      {"measurement": "Predicted Cmax", "setting": "[2]; predicted for 400 mg", "value": 32230, "unit": "ng/mL"},
      {"measurement": "safety and tolerability", "setting": "[3]", "value": "safe and well-tolerated"},
      {"measurement": "effect on bronchoconstriction induced by U-46619", "setting": "human bronchial tissue; 10 μg/mL pemirolast, 100 nM U-46619, n=2", "value": "partially reversed"},
      {"measurement": "effect on bronchoconstriction induced by potassium chloride", "setting": "human bronchial tissue; 10 μg/mL pemirolast, KCl 30 mM, n=2", "value": "no effect"},
      {"measurement": "effect on bronchoconstriction induced by carbachol", "setting": "human bronchial tissue; 10 μg/mL pemirolast, n=4", "value": "no effect"},
      {"measurement": "effect on bronchoconstriction induced by histamine", "setting": "human bronchial tissue; 10 μg/mL pemirolast, n=3", "value": "no effect"},
      {"measurement": "effect on bronchoconstriction induced by leukotriene D4", "setting": "human bronchial tissue; 10 μg/mL pemirolast, leukotriene D4 1 nM, n=3", "value": "no effect"},
      {"measurement": "reversal of PGF2α-induced bronchoconstriction (force)", "setting": "human bronchial tissue; 10 μg/ml pemirolast, PGF2α 3 μM pre-contraction, within 15 min, n=4, vehicle 6.8±3.1%", "value": "21.5±4.4", "unit": "%"},
      {"measurement": "reduction of PGF2α-induced bronchoconstriction (force)", "setting": "human bronchial tissue; 110 μg/mL pemirolast (cumulative), PGF2α 3 μM pre-contraction, within 40 min, n=4, vehicle 18.6±4.9%", "value": "72.0±12.6", "unit": "%"},
      {"measurement": "effect on bronchoconstriction induced by U-46619", "setting": "human bronchial tissue; 110 μg/mL pemirolast, 100 nM U-46619", "value": "partial reversal"},
      {"measurement": "effect on the response to KCl", "setting": "human bronchial tissue; 110 μg/mL pemirolast, KCl 30 mM", "value": "little effect"},
      {"measurement": "effect on bronchoconstriction induced by carbachol", "setting": "human bronchial tissue; 110 μg/mL pemirolast", "value": "partial reversal"},
      {"measurement": "effect on bronchoconstriction induced by histamine", "setting": "human bronchial tissue; 110 μg/mL pemirolast", "value": "partial reversal"},
      {"measurement": "effect on the response to leukotriene D4", "setting": "human bronchial tissue; 110 μg/mL pemirolast, leukotriene D4 1 nM", "value": "little effect"},
      {"measurement": "mannitol PD15", "setting": "[4]; 3 hour pre-treatment, oral single dose (pemirolast sodium hemihydrate tablets), asthma patients", "value": "increased"},
      {"measurement": "long-term prophylactic effect on mannitol-induced asthma (mannitol PD15 at placebo visit)", "setting": "[4]; placebo treatment preceded by 40 mg dose p.o.", "value": "not seen"},
      {"measurement": "long-term prophylactic effect on mannitol-induced asthma (mannitol PD15 at placebo visit)", "setting": "[4]; single 400 mg dose p.o. given at least 3 days before placebo/mannitol", "value": "resulted in a prophylactic effect; also recorded: tolerated a much higher dose of mannitol"},
      {"measurement": "adverse events, vital signs, physical examination, haematology and blood biochemistry", "setting": "[4]; single oral doses 40 mg and 400 mg, asthma patients", "value": "no serious adverse events"},
      {"measurement": "baseline production of PGD2 in asthmatics without ongoing attacks", "setting": "prostaglandin D2; 3 hours after administration of 40 mg", "value": "not"},
      {"measurement": "baseline production of PGD2 in asthmatics without ongoing attacks", "setting": "prostaglandin D2; 3 hours after administration of 400 mg", "value": "significantly reduced"},
      {"measurement": "urinary levels of the PGD2 biomarker (11β-PGF2α), 400 mg versus 40 mg previous treatment", "setting": "prostaglandin D2; patients treated at least 3 days before with 40 mg or 400 mg, 4+4 patients", "value": "did not differ"},
      {"measurement": "PAF-induced bronchoconstriction", "setting": "[5]", "value": "inhibited"},
      {"measurement": "antigen-induced bronchoconstriction", "setting": "[5]", "value": "inhibited"},
      {"measurement": "effect on bronchoconstriction", "setting": "isolated tracheal muscle; much higher concentrations than 10 μg/mL", "value": "some effect"},
      {"measurement": "effect on bronchoconstriction induced by PGF2α", "setting": "isolated tracheal muscle; pre-treatment at 10 μg/mL", "value": "no effect"},
      {"measurement": "effect on bronchoconstriction induced by leukotriene D4", "setting": "isolated tracheal muscle; pre-treatment at 10 μg/mL", "value": "no effect"},
      {"measurement": "potency relative to theophylline", "setting": "[6]", "value": "one seventh"},
      {"measurement": "direct bronchodilator activity when used clinically", "setting": "[7]", "value": "no direct bronchodilator activity"}
    ]}
  ]
}
